Experimental data: US20250319063A1, “METHODS AND COMPOUNDS FOR RESTORING MUTANT P53 FUNCTION” (PMV PHARMACEUTICALS, INC., priority 2022, published 2025)
“Also recorded” adds a separate entry of the source. Read-outs that look alike come from different tables or passages of the source.

Assay: Pharmacokinetic analysis of patient plasma (LC/MS/MS, noncompartmental analysis)
Assay type: in vivo
Conditions: for half-life: human, plasma
Text: Serial blood samples for PK assessments were collected from all patients, including adolescents. Serial blood samples from all patients were also collected for PDc assessment of response to Compound 1. Pre- and on-treatment tumor biopsies for PDc assessment were optional. The relationship between plasma Compound 1 concentrations and pharmacodynamic biomarkers of response were explored. When the MTD was established, this cohort was expanded up to 12 patients. At least one additional cohort at a total daily dose below the MTD and considered to be active were expanded up to 12 patients. These expanded cohorts provided additional information about the relationship between dose, safety/tolerability, and efficacy to inform the selection of RP2D. Data from Phase 1 are reviewed to assess the benefit-risk for each dose level when selecting RP2D. The RP2D is determined as the dose resulting in the best therapeutic window for Compound 1 based on the review of all available safety, PK, PDc, and preliminary efficacy data. The RP2D can be the same as the MTD or below the MTD.
Compound 1 concentration data were summarized by dose level and Study Day using nominal time points. Individual and mean concentrations versus nominal time plots were presented by dose level. Pharmacokinetic parameter values were derived by non-compartmental methods by a validated pharmacokinetic analysis program. Actual times were used for all formal analyses. PK parameters were summarized by dose level. Individual values were listed for each PK parameter (e.g., Cmax, Tmax, AUC0-T, AUCtau, Ctrough/Ctau, accumulation ratios) by dose level, and the following (non-model-based) descriptive statistics were provided: N (number of patients with non-missing data), arithmetic mean, standard deviation, arithmetic percent coefficient of variation (CV) (calculated as 100×standard deviation/arithmetic mean), median, minimum, maximum, geometric mean, and geometric percent CV (calculated as: […]
Plasma samples were analyzed for levels of Compound 1 via a validated LC/MS/MS method. The concentration data were analyzed using Phoenix version 8.2 via noncompartmental analysis.

## CNC(=O)c1ccc(NCC#Cc2cc3c(N[C@@H]4CCN(C)C[C@@H]4F)cccc3n2CC(F)(F)F)c(OC)c1 [Compound 1, 4-((3-(4-(((3S,4R)-3-fluoro-1-methylpiperidin-4-yl)amino)-1-(2,2,2-trifluoroethyl)-1H-indol-2-yl)prop-2-yn-1-yl)amino)-3-methoxy-N-methylbenzamide]
2,000 mg QD, 2,500 mg QD, and 1,500 mg BID dose groups
  Exposures: Exposures were efficacious
oral, patients, Day 15, read-out: Median half-life (converted)
  half-life: 19 h
patients, oral QD or BID dosing, read-out: Half-lives
  half-life: 10 to 34 h
patients, Day 1 through D15
  dose proportionality of exposure: dose proportional increases in Cmax and AUC values; also recorded: linear PK over the therapeutic dose range
